Experimental data published in patent publication US10344019B2 (priority 2010, dated 2019).

Key:
Test in all cases: microbe, parasite or virus in culture
Assay type in all cases: cell-based
[1] = system: HCV 1a RLuc cells (dicistronic genotype 1a H77 replicon, RLuc reporter); details: Hepatitis C virus, 72 h, Table 2; genotype 1a H77 replicon, 72 hours; read-out: 1a
In short: (§1)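 Replicon cells stably carrying the listed RLuc-encoding dicistronic replicons were seeded and treated with DMSO serial dilutions of compound (10 mM stocks) diluted into culture medium. After 72 h, cells were lysed and Renilla luciferase activity measured. EC50 was derived by non-linear regression.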

[2] = system: HCV 2a JFH-1 Rluc cells (dicistronic genotype 2a JFH-1 replicon, RLuc reporter); details: Hepatitis C virus, 72 h, Table 2; genotype 2a JFH-1 replicon, 72 hours; read-out: 2a JFH
In short: as §1

[3] = system: HCV 4a Rluc cells (NS5A chimeric genotype 1b Con1 replicon with genotype 4a NS5A gene); details: Hepatitis C virus, read-out: 4a
In short: as §1

[4] = system: HCV 1b RLuc cells (dicistronic genotype 1b Con1 replicon, RLuc reporter); details: Hepatitis C virus, 72 h, read-out: 1b (nM)
In short: as §1

[5] = system: HCV 3a RLuc cells (NS5A chimeric genotype 1b Con1 replicon with consensus genotype 3a NS5A gene); details: Hepatitis C virus, read-out: 3a, Table 2; genotype 3a NS5A chimeric replicon
In short: as §1

| Compound | EC50 [1] [pM] | EC50 [2] [pM] | EC50 [3] [pM] | EC50 [4] [nM] | EC50 [5] [pM] |
| --- | --- | --- | --- | --- | --- |
| COC(=O)N[C@H](C(=O)N1[C@@H]2CC[C@@H](C2)[C@H]1c1ncc(-c2ccc(-c3ccc4cc(-c5cnc([C@@H]6CCCN6C(=O)[C@H](NC(=O)OC)c6ccccc6)[nH]5)ccc4c3)cc2)[nH]1)[C@@H](C)OC [Example 72] | 1 to 999 | 1 to 999 | 1 to 990 | 0.006 | 1 to 990 |
| COC(=O)N[C@H](C(=O)N1CCC[C@H]1c1ncc(-c2ccc3c(c2)CCc2cc(-c4cnc([C@@H]5[C@H]6CC[C@H](C6)N5C(=O)[C@@H](NC(=O)OC)[C@@H](C)OC)[nH]4)ccc2-3)[nH]1)[C@@H](C)OC [Example 73] | 1 to 999 | 1 to 999 | 1 to 990 | 0.038 | 1000 to 4990 |
| COC(=O)N[C@H](C(=O)N1CCC[C@H]1c1ncc(-c2ccc3c(c2)OCc2cc(-c4ccc5nc([C@@H]6[C@H]7CC[C@H](C7)N6C(=O)[C@@H](c6ccccc6)N(N)C(=O)OC)[nH]c5c4)ccc2-3)[nH]1)C(C)C [Example 74] | 1 to 999 | 1 to 999 | 1 to 990 | 0.006 | 1 to 990 |
| COC(=O)NC(C(=O)N1[C@@H]2CC[C@@H](C2)[C@H]1c1nc2ccc(-c3ccc4c(c3)C(F)(F)c3cc(-c5c[nH]c([C@H]6CCCN6C(=O)[C@H](NC(=O)OC)c6ccccc6)n5)ccc3-4)cc2[nH]1)[C@@H](C)OC (some centres unmarked) [Example 75] | 1 to 999 | 1 to 999 | 1 to 990 | 0.005 | 1 to 990 |
| COC(=O)N[C@H](C(=O)N1CCC[C@H]1c1ncc(-c2ccc3c(c2)CCc2cc(-c4ccc5nc([C@@H]6[C@H]7CC[C@H](C7)N6C(=O)[C@@H](NC(=O)OC)[C@@H](C)OC)[nH]c5c4)ccc2-3)[nH]1)[C@@H](C)OC [Example 76] | 1 to 999 | 1000 to 44000 | 1 to 990 | 0.01 | 1000 to 4990 |
| COC(=O)N[C@H](C(=O)N1CCC[C@H]1c1ncc(-c2ccc3c(c2)CCc2cc(-c4ccc5nc([C@@H]6[C@H]7CC[C@H](C7)N6C(=O)[C@@H](NC(=O)OC)C6CCOCC6)[nH]c5c4)ccc2-3)[nH]1)C1CCOCC1 [Example 77] | 1 to 999 | 1 to 999 | 1 to 990 | 0.029 | 1 to 990 |
| COC(=O)N[C@H](C(=O)N1CCC[C@H]1c1ncc(-c2ccc3c(c2)CCc2cc(-c4ccc5nc([C@@H]6[C@H]7CC[C@H](C7)N6C(=O)[C@H](NC(=O)OC)c6ccccc6)[nH]c5c4)ccc2-3)[nH]1)C1CCOCC1 [Example 78] | 1 to 999 | 1 to 999 | 1 to 990 | 0.013 | 1 to 990 |
| COC(=O)N[C@H](C(=O)N1CCC[C@H]1c1ncc(-c2ccc3c(c2)CCc2cc(-c4cnc([C@@H]5[C@H]6CC[C@H](C6)N5C(=O)[C@@H](NC(=O)OC)C5CCOCC5)[nH]4)ccc2-3)[nH]1)C1CCOCC1 [Example 79] | 1 to 999 | 1 to 999 | 1 to 990 | 0.231 | 1 to 990 |
| COC(=O)NC(C(=O)N1CCC[C@@H]1c1nc(-c2ccc3c(c2)C(F)(F)c2cc(-c4ccc5nc([C@@H]6[C@H]7CC[C@H](C7)N6C(=O)[C@H](NC(=O)OC)c6ccccc6)[nH]c5c4)ccc2-3)c[nH]1)[C@@H](C)OC (some centres unmarked) [Example 81] | 1 to 999 | 1 to 999 | 1 to 990 | 0.006 | 1 to 990 |
| COC(=O)N[C@H](C(=O)N1CCC[C@H]1c1nc2ccc3cc(-c4ccc5cc(-c6cnc([C@@H]7[C@H]8CC[C@H](C8)N7C(=O)[C@H](NC(=O)OC)c7ccccc7)[nH]6)ccc5c4)ccc3c2[nH]1)C1CCOCC1 [Example 84] | 1 to 999 | 1 to 999 | 1 to 990 | 0.007 | 1 to 990 |
| COC(=O)N[C@H](C(=O)N1[C@@H]2CC[C@@H](C2)[C@H]1c1ncc(-c2ccc3c(c2)CCc2cc(-c4cnc([C@@H]5CCCN5C(=O)[C@@H](NC(=O)OC)C(C)OC)[nH]4)ccc2-3)[nH]1)C(C)C (some centres unmarked) [Example 85] | 1 to 999 | 1 to 999 | 1 to 990 | 0.016 | 1000 to 4990 |
| COC(=O)N[C@H](C(=O)N1[C@@H]2CC[C@@H](C2)[C@H]1c1ncc(-c2ccc3c(c2)CCc2cc(-c4cnc([C@@H]5CCCN5C(=O)[C@@H](NC(=O)OC)C5CCOCC5)[nH]4)ccc2-3)[nH]1)C(C)C [Example 86] | 1 to 999 | 1 to 999 | 1 to 990 | 0.034 | 1000 to 4990 |
| COC(=O)N[C@H](C(=O)N1CCC[C@H]1c1nc2ccc3cc(-c4ccc5c(c4)CCc4nc([C@@H]6[C@H]7CC[C@H](C7)N6C(=O)[C@@H](NC(=O)OC)[C@@H](C)OC)[nH]c4-5)ccc3c2[nH]1)C(C)C [Example 88] | 1 to 999 | 1 to 999 | 1 to 990 | 0.019 | 1 to 990 |
| COC(=O)N[C@H](C(=O)N1CCC[C@H]1c1nc2ccc3cc(-c4ccc5c(c4)CCc4nc([C@@H]6[C@H]7CC[C@H](C7)N6C(=O)[C@@H](NC(=O)OC)C6CCOCC6)[nH]c4-5)ccc3c2[nH]1)C(C)C [Example 89] | 1 to 999 | 1 to 999 | 1 to 990 | 0.064 | 1 to 990 |
| COC(=O)N[C@H](C(=O)N1CCC[C@H]1c1ncc(-c2ccc(-c3ccc4c(ccc5nc([C@@H]6CC7(CN6C(=O)[C@@H](NC(=O)OC)[C@@H](C)OC)OCCO7)[nH]c54)c3)cc2)[nH]1)C(C)C [Example 90] | 1 to 999 | 1 to 999 | 1 to 990 | 0.044 | 1000 to 4990 |
| COC(=O)N[C@H](C(=O)N1CCC[C@H]1c1ncc(-c2ccc(-c3ccc4c(ccc5nc([C@@H]6CC7(CN6C(=O)[C@@H](NC(=O)OC)C6CCOCC6)OCCO7)[nH]c54)c3)cc2)[nH]1)C(C)C [Example 91] | 1 to 999 | 1 to 999 | 1 to 990 | 0.1 | 1000 to 4990 |
| COC(=O)N[C@H](C(=O)N1CCC[C@H]1c1ncc(-c2ccc3c(c2)CCc2cc(-c4cnc([C@@H]5[C@H]6CC[C@H](C6)N5C(=O)[C@@H](NC(=O)OC)C5CCOCC5)[nH]4)ccc2-3)[nH]1)C(C)C [Example 92] | 1 to 999 | 1 to 999 | 1 to 990 | 0.047 | 1 to 990 |
| COC(=O)N[C@H](C(=O)N1CCC[C@H]1c1ncc(-c2ccc3c(c2)CCc2cc(-c4cnc([C@@H]5[C@H]6CC[C@H](C6)N5C(=O)[C@@H](NC(=O)OC)[C@@H](C)OC)[nH]4)ccc2-3)[nH]1)C(C)C [Example 93] | 1 to 999 | 1 to 999 | 1 to 990 | 0.023 | 1 to 990 |
| COC(=O)N[C@H](C(=O)N1CCC[C@H]1c1ncc(-c2ccc3c(c2)COc2cc(-c4ccc5nc([C@@H]6[C@H]7CC[C@H](C7)N6C(=O)[C@H](NC(=O)OC)c6ccccc6)[nH]c5c4)ccc2-3)[nH]1)C(C)C [Example 94] | 1 to 999 | 1 to 999 | 1 to 990 | 0.007 | 1 to 990 |
